Reference: patent US20100048660A1, “TREATMENT OF DUCHENNE MUSCULAR DYSTROPHY” (priority 2006, published 2010)

tested on: Utrophin A promoter linked to a luciferase reporter gene (H2K/mdx/Utro A reporter cell line); test: Luciferase reporter assay (murine H2K cells); format: cell-based; settings: Mus musculus; Table 1; murine H2K mdx myoblasts, compound final concentration 10 μM, 48 hrs; read-out: Activity (luciferase reporter assay, relative to control)
Method: 1. Luciferase Reporter Assay (Murine H2K Cells)
The cell line used for the screen is an immortalized mdx mouse H2K cell line that has been stably transfected with a plasmid containing ≈5 kb fragment of the Utrophin A promoter including the first untranslated exon linked to a luciferase reporter gene (see FIG. 1).
Under conditions of low temperature and interferon containing media, the cells remain as myoblasts. These are plated into 96 well plates and cultured in the presence of compound for three days. The level of luciferase is then determined by cell lysis and reading of the light output from the expressed luciferase gene utilising a plate luminometer.
The H2K/mdx/Utro A reporter cell line was passaged twice a week until ≦30% confluent. The cells were grown at 33° C. in the presence of 10% CO2
The H2K/mdx/Utro A reporter cell line cells were plated out into 96 well plates (Falcon 353296, white opaque) at a density of approximately 5000 cells/well in 190 μl normal growth medium. The plates were then incubated at 33° C. in the presence of 10% CO2 for 24 hrs.
Compounds were dosed by adding 10 μl of diluted compound to each well giving a final concentration of 10 μM. The plates were then incubated for a further 48 hrs
Cells were then lysed in situ following the manufacture's protocols (Promega Steady-Glo Luciferase Assay System (E2520). Then counted for 10 seconds using a plate luminometer (Victorl420).

SMILES	activity at 10 µM [%]
CCCCC(=O)Nc1cc2nn(-c3ccc(N(CC)CC)cc3)nc2cc1C [Example 16, N-(2-(4-(diethylamino)phenyl)-6-methyl-2H-benzo[d][1,2,3]triazol-5-yl)pentanamide]	< 200
CN1CCN(c2ccc(-n3nc4ccc(N)cc4n3)cc2)CC1 [Example 42, 2-(4-(4-methylpiperazin-1-yl)phenyl)-2H-benzo[d][1,2,3]triazol-5-amine]	< 200
CS(=O)(=O)c1ccc2nn(-c3ccc4ccccc4c3)nc2c1 [Example 55, 5-(Methylsulfonyl)-2-(naphthalen-2-yl)-2H-benzo[d][1,2,3]triazole]	> 401
CC(C)C(=O)Nc1ccc2cn(-c3ccc(Cl)cc3)nc2c1 [Example 46, N-(2-(4-chlorophenyl)-2H-indazol-6-yl)isobutyramide]	> 401
CCN(CC)c1ccc(-n2nc3cc(C)c(NC(=O)c4cccnc4)cc3n2)cc1 [Example 12, N-(2-(4-(diethylamino)phenyl)-6-methyl-2H-benzo[d][1,2,3]triazol-5-yl)nicotinamide]	301 to 400
CC(C)C(=O)Nc1ccc2nn(-c3ccc(Cl)c(Cl)c3)nc2c1 [Example 53, N-(2-(3,4-Dichlorophenyl)-2H-benzo[d][1,2,3]triazol-5-yl)isobutyramide]	> 401
CCC(=O)Nc1cc2nn(-c3ccc(N(CC)CC)cc3)nc2cc1C [Example 14, N-(2-(4-(diethylamino)phenyl)-6-methyl-2H-benzo[d][1,2,3]triazol-5-yl)propionamide]	< 200
CCCCC(=O)Nc1ccc2nn(-c3ccc(N(CC)CC)cc3)nc2c1 [Example 25, N-(2-(4-(diethylamino)phenyl)-2H-benzo[d][1,2,3]triazol-5-yl)pentanamide]	< 200
Cc1cc2nn(-c3ccc(Cl)cc3)nc2cc1NC(=O)C(C)C [Example 10, N-(2-(4-chlorophenyl)-6-methyl-2H-benzo[d][1,2,3]triazol-5-yl)isobutyramide]	201 to 300
CCN(CC)c1ccc(-n2nc3ccc(NC(=O)c4ccc(OC)cc4)cc3n2)cc1 [Example 30, N-(2-(4-(diethylamino)phenyl)-2H-benzo[d][1,2,3]triazol-5-yl)-4-methoxybenzamide]	< 200
CCN(CC)c1ccc(-n2nc3ccc(NC(=O)c4ccc(Cl)cc4)cc3n2)cc1 [Example 32, 4-chloro-N-(2-(4-(diethylamino)phenyl)-2H-benzo[d][1,2,3]triazol-5-yl)benzamide]	< 200
CCCCC(=O)Nc1cc2nn(-c3ccc(Cl)cc3)nc2cc1C [Example 9, N-(2-(4-chlorophenyl)-6-methyl-2H-benzo[d][1,2,3]triazol-5-yl)pentanamide]	201 to 300
CCN(CC)c1ccc(-n2nc3ccc(NC(=O)c4ccncc4)cc3n2)cc1 [Example 21, N-(2-(4-(diethylamino)phenyl)-2H-benzo[d][1,2,3]triazol-5-yl)isonicotinamide]	< 200
CCN(CC)c1ccc(-n2nc3ccc(N)cc3n2)cc1 [Example 19, 2-(4-(diethylamino)phenyl)-2H-benzo[d][1,2,3]triazol-5-amine]	301 to 400
CC(C)S(=O)(=O)c1ccc2cn(-c3ccc(Cl)cc3)nc2c1 [Example 56, 2-(4′-Chlorophenyl)-6-(isopropylsulfonyl)-2H-indazole]	> 401
Nc1ccc2nn(-c3ccc(N4CCCCC4)cc3)nc2c1 [Example 40, 2-(4-(piperidin-1-yl)phenyl)-2H-benzo[d][1,2,3]triazol-5-amine]	201 to 300
Clc1ccc(-n2cc3ccccc3n2)cc1 [Example 48, 2-(4-chlorophenyl)-2H-indazole]	> 401
CCS(=O)(=O)c1ccc2nn(-c3ccc(Cl)c(Cl)c3)nc2c1 [Example 51, 2-(3′,4′-dichlorophenyl)-5-(ethylsulfonyl)-benzotriazole]	301 to 400
Cc1cc2nn(-c3ccc(Cl)cc3)nc2cc1NC(=O)c1cccs1 [Example 6, N-(2-(4-chlorophenyl)-6-methyl-2H-benzo[d][1,2,3]triazol-5-yl)thiophene-2-carboxamide]	301 to 400

same assay, conditions: Mus musculus; Table 2; murine H2K mdx myoblasts, compound final concentration 10 μM, 48 hrs; read-out: Activity (luciferase reporter assay, relative to control)

SMILES	activity at 10 µM [%]
CCc1ccc(-n2nc3ccc(N)cc3n2)cc1 [Example 68, 2-(4-ethylphenyl)-2H-benzo[d][1,2,3]triazol-5-amine]	201 to 300
CC(=O)Nc1ccc2nn(-c3ccc(F)cc3)nc2c1 [Example 69, N-(2-(4-fluorophenyl)-2H-benzo[d][1,2,3]triazol-5-yl)acetamide]	201 to 300
